Experimental data published in patent US9663528B2, “Substituted 1,2,3,4,6,8,12,12a-octahydro-1,4-methanodipyrido[1,2-a:1',2'-d]pyrazines and methods for treating viral infections” (priority 2012, dated 2017).
Read-outs that look alike come from different tables or passages of the source. Blank lines part the entries; values can stand above or below the compound they belong to.

How the values were obtained:
[1] = test system: HIV-IIIb; assay: Antiviral assay in MT4 cells; format: cell-based; details: MT4 cells infected with HIV-IIIb, 5 days incubation; read-out: EC50 nM in MT-4
Protocol: For the antiviral assay utilizing MT4 cells, 0.4 μL of […] test concentration of 3-fold serially diluted compound in DMSO was added to 40 μL of cell growth medium (RPMI 1640, 10% FBS, 1% penicilline/Streptomycine, 1% L-Glutamine, 1% HEPES) in each well of 384-well assay plates (10 concentrations) in quidruplicate.
1 mL aliquots of 2×10^6 MT4 cells are pre-infected for 1 and 3 hours respectively at 37° C. with 25 μL (MT4) or of either cell growth medium (mock-infected) or a fresh 1:250 dilution of an HIV-IIIb concentrated ABI stock (0.004 m.o.i. for MT4 cells). Infected and uninfected cells are diluted in cell growth medium and 35 μL of 2000 (for MT4) cells is added to each well of the assay plates.
Assay plates were then incubated in a 37° C. incubator. After 5 days of incubation, 25 μL of 2× concentrated CellTiter-Glo™ Reagent (catalog #G7573, Promega Biosciences, Inc., Madison, Wis.) was added to each well of the assay plate. Cell lysis was carried out by incubating at room temperature for 2-3 minutes, and then chemiluminescence was read using the Envision reader (PerkinElmer).

[2] = test system: MT4 cells; assay: in vitro
[3] = target: PXR (Homo sapiens (Human), UniProt O75469); assay: Human PXR activation assay (luciferase reporter gene assay, DPX2 cells); format: cell-based; details: for Emax at 24 h, 15 µM: human
Sequence of PXR (O75469 whole entry): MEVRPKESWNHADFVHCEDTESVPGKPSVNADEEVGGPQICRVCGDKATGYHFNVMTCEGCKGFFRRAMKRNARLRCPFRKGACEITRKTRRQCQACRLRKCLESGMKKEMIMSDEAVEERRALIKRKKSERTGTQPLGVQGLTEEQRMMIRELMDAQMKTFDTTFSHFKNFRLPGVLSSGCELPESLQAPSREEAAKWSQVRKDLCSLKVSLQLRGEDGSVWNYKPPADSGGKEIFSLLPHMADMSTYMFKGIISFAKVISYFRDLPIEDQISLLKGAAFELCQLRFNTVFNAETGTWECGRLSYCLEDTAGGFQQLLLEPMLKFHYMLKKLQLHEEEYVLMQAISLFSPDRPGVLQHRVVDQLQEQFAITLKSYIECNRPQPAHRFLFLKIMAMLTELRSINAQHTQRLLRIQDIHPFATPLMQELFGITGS
Protocol: A stably transformed tumor cell line (DPX2) was plated on 96-well microtiter plates. DPX2 cells harbor the human PXR gene (NR112) and a luciferase reporter gene linked to two promoters identified in the human CYP3A4 gene, namely XREM and PXRE. […] The number of viable cells was determined and the reporter gene activity was assessed. Positive control: […]

[4] = Pharmacokinetic analysis following intravenous administration to beagle dogs; format: in vivo; details: male, dog, 0.5 mg/kg; for Vd: read-out: Vss
Protocol: (§1) Pharmacokinetic analysis was performed on various test compounds following intravenous or oral administration to beagle dogs.
(§2) For pharmacokinetic analysis of intravenously administered compounds, the test compounds were formulated in 5% Ethanol, 55% PEG 300, and 40% water at 0.1 mg/mL for IV infusion. For pharmacokinetic analysis of orally administered compounds, the test compounds were formulated as an aqueous suspension in 0.1% Tween 20, 0.5% HPMC LV 100 in Di Water at 1 mg/kg.
(§3) Each dosing group consisted of 3 male, non-naïve purebred beagle dogs. At dosing, the animals weighed between 10 to 13 kg. The animals were fasted overnight prior to dose administration and up to 4 hr after dosing. For studies of intravenous administration, the test article was administered to the animals by intravenous infusion over 30 min. The rate of infusion was adjusted according to the body weight of each animal to deliver a dose of 0.5 mg/kg. For studies of oral administration, the test article was administered according to the body weight of each animal to deliver a dose of 1 mg/kg.
For pharmacokinetic analysis of intravenously administered compounds, serial venous blood samples (approximately 1 mL each) were taken from each animal at 0, 0.250, 0.483, 0.583, 0.750, 1.00, 1.50, 2.00, 4.00, 8.00, 12.0, and 24.0 hours after dosing. The blood samples were collected into Vacutainer™ tubes containing EDTA-K2 as the anti-coagulant and were immediately placed on wet ice pending centrifugation for plasma. An LC/MS/MS method was used to measure the concentration of the test compound in plasma. An aliquot of 100 μL of each plasma sample was added to a clean 96 well plate, and 400 μL of cold acetonitrile/internal standard solution (ACN)/(ISTD) was added. After protein precipitation, an aliquot of 110 μL of the supernatant was transferred to a clean 96-well plate and diluted with 300 μL of water. An aliquot of 25 μL of the above solution was injected into a TSQ Quantum Ultra LC/MS/MS system utilizing a Hypersil Gold C18 HPLC column (50×3.0 mm, 5 μm; Thermo-Hypersil Part #25105-053030). An Agilent 1200 series binary pump (P/N G1312A Bin Pump) was used for elution and separation, and an HTS Pal autosampler (LEAP Technologies, Carrboro, N.C.) was used for sample injection. A TSQ Quantum Ultra triple quadrupole mass spectrometer was utilized in selective reaction monitoring mode (Thermo Finnigan, San Jose, Calif.). Liquid chromatography was performed using two mobile phases: mobile phase A contained 1% acetonitrile in 2.5 mM ammonium formate aqueous solution with pH of 3.0, and mobile phase B contained 90% acetonitrile in 10 mM ammonium formate with pH of 4.6. Non-compartmental pharmacokinetic analysis was performed on the plasma concentration-time data. The resulting data are shown in the first three columns of Table 4. In Table 4, CL refers to clearance, which characterizes the rate at which drug is removed from plasma. The lower the clearance of a drug is, the longer the elimination half-life is in the body. Vss refers to the steady state volume of distribution and indicates how well a drug is distributed into the tissues. The larger the Vss is, the longer the elimination half-life is in the body. MRT refers to mean residence time, which is a measure of the average time molecules exist in the body.

[5] = in vitro; details: human
[6] = Pharmacokinetic analysis following oral administration to beagle dogs; format: in vivo; details: 1 mg/kg
Protocol: as §1, §2, §3
For pharmacokinetic analysis of orally administered compounds, serial venous blood samples (approximately 0.3 mL each) were taken from each animal at time points of 0, 0.25, 0.50, 1.0, 2.0, 4.0, 6.0, 8.0, 12.0 and 24.0 hours after dosing. Blood samples were collected, prepared and analyzed in a similar way to the intravenous studies described above. Non-compartmental pharmacokinetic analysis was performed on the plasma concentration-time data. The resulting data are shown in the last three columns of Table 4. In Table 4, F (%) refers to oral bioavailability. Cmax refers to the peak plasma concentration of the compound after administration. AUC refers to area under the curve and is a measure of total plasma exposure of the indicated compound.

[7] = target: OCT2 (Homo sapiens (Human), UniProt O15244); assay: OCT2 inhibition assay (14C-TEA uptake, OCT2-transfected MDCKII cells); format: cell-based
Sequence of OCT2 (O15244 whole entry): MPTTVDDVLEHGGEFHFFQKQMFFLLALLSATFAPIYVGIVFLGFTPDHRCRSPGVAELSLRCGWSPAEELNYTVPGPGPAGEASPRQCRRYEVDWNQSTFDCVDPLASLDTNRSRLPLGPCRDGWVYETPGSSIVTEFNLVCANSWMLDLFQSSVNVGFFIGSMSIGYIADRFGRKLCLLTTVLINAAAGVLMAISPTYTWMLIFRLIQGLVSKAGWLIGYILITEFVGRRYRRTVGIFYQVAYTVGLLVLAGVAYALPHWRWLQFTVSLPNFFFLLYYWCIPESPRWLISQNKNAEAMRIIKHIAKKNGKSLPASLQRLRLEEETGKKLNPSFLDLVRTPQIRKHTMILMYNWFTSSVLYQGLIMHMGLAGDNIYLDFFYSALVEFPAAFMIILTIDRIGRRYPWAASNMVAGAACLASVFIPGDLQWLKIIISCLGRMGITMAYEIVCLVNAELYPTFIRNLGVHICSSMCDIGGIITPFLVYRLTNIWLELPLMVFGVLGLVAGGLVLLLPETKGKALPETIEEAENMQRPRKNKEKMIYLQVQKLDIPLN
Protocol: On assay day, cells were trypsinized and resuspended in Krebs-Henseleit Buffer (KHB), pH 7.4 at […]. Cells were preincubated for 15 min in assay plate before addition of test compound or substrate. Test compounds were serially diluted in DMSO and then spiked (2 μL) into in 0.4 mL KHB buffer containing wild-type or OCT2-transfected cells and incubated for 10 minutes. Assay was initiated with the addition of 0.1 mL of 100 μM ^14C-TEA in KHB buffer (20 μM final concentration after mixing). The concentration of TEA is based on the Km. After 10 minutes of incubation, the assay mixture was quenched with addition of 0.5 mL of ice-cold 1×PBS buffer. Samples were then centrifuged at 1000 rpm for 5 min and supernatants were removed. Wash steps were repeated four times with ice-cold PBS. Finally, the cell pellets were lysed with 0.2N NaOH and let sit at room temperature for at least 30 min to ensure complete lysis. Samples were then counted on liquid scintillation counter and dpm counts were used to perform the following calculations.

[8] = plasma, beagle dogs, IV infusion over 30 min
[9] = OCT2 mediated uptake of 14C-TEA (20 μM), MDCKII cells, read-out: IC50
[10] = plasma, beagle dogs, IV infusion over 30 min, read-out: CL (converted)
[11] = plasma, beagle dogs, IV infusion over 30 min, read-out: MRT
[12] = 15 μM, relative to maximum fold induction by 10 or 20 μM rifampicin, DPX2 cells, 24 hours, read-out: % Emax at 15 μM
[13] = beagle dogs, oral, aqueous suspension
[14] = male, dog, plasma, beagle dogs, oral, aqueous suspension, read-out: AUC (μM*h) aqueous suspension
[15] = male, dog, plasma, beagle dogs, oral, aqueous suspension, read-out: Cmax (μM) aqueous suspension

Structure (SMILES): O=C(NCc1c(F)cc(F)cc1F)c1cn2c(c(O)c1=O)C(=O)N1[C@H]3CC[C@H](CC3)[C@@H]1C2 [Compound 102, (1S,4S,12aR)-7-hydroxy-6,8-dioxo-N-(2,4,6-trifluorobenzyl)-1,2,3,4,6,8,12,12a-octahydro-1,4-ethanodipyrido[1,2-a:1′,2′-d]pyrazine-9-carboxamide]
EC50 [1]: 2.3 nM
CC50 [2]: 12 µM
% Emax at 15 μM ([3]; 15 μM, relative to maximum fold induction by 10 or 20 μM rifampicin, DPX2 cells, 24 hours): 123%

Structure (SMILES): O=C(NC1(c2ccc(F)cc2F)CC1)c1cn2c(c(O)c1=O)C(=O)N1[C@@H]3CC[C@@H](C3)O[C@H]1C2 [Compound 30, (2S,5R,13aS)-N-(1-(2,4-difluorophenyl)cyclopropyl)-8-hydroxy-7,9-dioxo-2,3,4,5,7,9,13,13a-octahydro-2,5-methanopyrido[1′,2′:4,5]pyrazino[2,1-b][1,3]oxazepine-10-carboxamide]
EC50 [1]: 4 nM
CC50 ([2]; human, 5 days): 6.83 µM

Structure (SMILES): O=C(NCc1ccc(F)cc1F)c1cn2c(c(O)c1=O)C(=O)N1[C@H]3CC[C@H](C3)O[C@@H]1C2 [Compound 2, (2R,5S,13aR)-N-(2,4-difluorobenzyl)-8-hydroxy-7,9-dioxo-2,3,4,5,7,9,13,13a-octahydro-2,5-methanopyrido[1′,2′:4,5]pyrazino[2,1-b][1,3]oxazepine-10-carboxamide]
MRT ([4]; beagle, in vivo, iv): 6.5 h
clearance ([4]; beagle, in vivo, iv): 0.5 mL/min/kg
Vd [4, 8]: 0.2 L/kg
CC50 at 5 days ([5]; CC50 nM in MT-4): 3110 nM
Emax at 24 h, 15 µM [3]: 4.5%
AUC ([6]; male, beagle, dog, in vivo, po): 66.1 µM·h
Cmax ([6]; male, beagle, dog, in vivo, po): 7.8 µM
F (%) aqueous suspension ([6]; male, beagle, dog, in vivo, po): 40.7%
IC50 [7, 9]: 0.24 µM

Structure (SMILES): O=C(NCc1ccc(F)cc1F)c1cn2c(c(O)c1=O)C(=O)N1[C@H]3CC[C@H](C3)[C@@H]1C2 [Compound 47, (1R,4S,12aR)-N-(2,4-difluorobenzyl)-7-hydroxy-6,8-dioxo-1,2,3,4,6,8,12,12a-octahydro-1,4-methanodipyrido[1,2-a:1′,2′-d]pyrazine-9-carboxamide]
Vd ([4]; in vivo, beagle dogs, IV infusion over 30 min): 0.1 L/kg
clearance [4, 10]: 0.233 mL/min/kg
MRT [4, 11]: 7.4 h
CC50 at 5 days ([5]; CC50 nM in MT-4): 11300 nM
Emax at 24 h, 15 µM [3, 12]: 11%
F (%) aqueous suspension [6, 13]: 12.6%
AUC [6, 14]: 20.4 µM·h
Cmax [6, 15]: 2.8 µM
IC50 [7, 9]: 6.2 µM

clearance [4, 10]: 0.333 mL/min/kg
MRT [4, 11]: 7.1 h
Vd [4, 8]: 0.15 L/kg
Emax at 24 h, 15 µM [3, 12]: 21%
F (%) aqueous suspension [6, 13]: 28.0%
AUC [6, 14]: 28.6 µM·h
Cmax [6, 15]: 4.5 µM
IC50 [7, 9]: 0.487 µM
Structure (SMILES): O=C(NCc1c(F)cc(F)cc1F)c1cn2c(c(O)c1=O)C(=O)N1[C@H]3CC[C@H](C3)O[C@@H]1C2 [Compound 42, (2R,5S,13aR)-8-hydroxy-7,9-dioxo-N-(2,4,6-trifluorobenzyl)-2,3,4,5,7,9,13,13a-octahydro-2,5-methanopyrido[1′,2′:4,5]pyrazino[2,1-b][1,3]oxazepine-10-carboxamide]
CC50 at 5 days ([5]; MT-4 cells, mock-infected, CC50 nM in MT-4, MT-4 cells, 5 days incubation): 3540 nM

EC50 [1]: 2.1 nM
Structure (SMILES): O=C(NCc1c(F)cc(F)cc1F)c1cn2c(c(O)c1=O)C(=O)N1[C@H]3CC[C@H](CC3)[C@H]1C2 [Compound 101, (11R,4R,12aS)-7-hydroxy-6,8-dioxo-N-(2,4,6-trifluorobenzyl)-1,2,3,4,6,8,12,12a-octahydro-1,4-ethanodipyrido[1,2-a:1′,2′-d]pyrazine-9-carboxamide]
CC50 [2]: 11.6 µM

Structure (SMILES): O=C(NCc1c(F)cc(F)cc1F)c1cn2c(c(O)c1=O)C(=O)N1[C@H]3CC[C@H](C3)[C@@H]1C2 [Compound 41, (1R,4S,12aR)-7-hydroxy-6,8-dioxo-N-(2,4,6-trifluorobenzyl)-1,2,3,4,6,8,12,12a-octahydro-1,4-methanodipyrido[1,2-a:1′,2′-d]pyrazine-9-carboxamide]
MRT ([4]; beagle, in vivo, iv): 7.5 h
clearance ([4]; beagle, in vivo, iv): 0.25 mL/min/kg
Vd [4, 8]: 0.11 L/kg
CC50 at 5 days ([5]; CC50 nM in MT-4): 15700 nM
Emax at 24 h, 15 µM [3]: 11.5%
AUC ([6]; male, beagle, dog, in vivo, po): 16.3 µM·h
Cmax ([6]; male, beagle, dog, in vivo, po): 2.4 µM
F (%) aqueous suspension ([6]; male, beagle, dog, in vivo, po): 10.7%
IC50 [7]: 2.82 µM
